Here are results for 6 compounds from article PMC4277420, “Assessment of [^125I]WYE-230949 as a Novel Histamine H3 Receptor Radiopharmaceutical” (PLoS ONE, 2014).

The structures appear in SMILES notation. Where two headings read alike, the source gives them in different places.

Details of data set [1]: method as in PMID 16934699, PMID 17998102. The note with it: cited from earlier work.
For data set [2] the following is noted: cited from earlier work.
In data set [3] the target is rat histamine H3 receptors. Set-up: method as in earlier work. The note with it: rat histamine H3 receptor; cited from earlier work.
Data set [4] has as its target human histamine H3 receptors. Set-up: method as in earlier work. The note with it: human histamine H3 receptor; cited from earlier work.
For data set [5], the target named is T1, rat histamine H3 receptor (Rattus norvegicus, UniProt Q9QYN8).
T1 construct: from tissue; host or cells: whole brain of male Sprague-Dawley rats, homogenate pellet
Kind of data set: In vitro saturation radioligand binding to rat brain homogenates. The note with it: whole rat brain homogenates, one-site binding model, n = 8. As to the method:
Animals (male Sprague-Dawley rats; Harlan, UK) were killed by cervical dislocation. Whole brains were immediately excised and placed into ice-cold Tris-HCl buffer (Tris […], pH 7.4; EDTA 5 mM), homogenised and centrifuged at approx 40,000 g for 10 min at 4°C (Beckman J2-21M/E). The pellet was resuspended in 25 ml of buffer and centrifuged as previously, then the final pellet was resuspended in 10 ml of ice cold Tris buffer and stored at −50°C until required. Protein content was analysed using Bio-Rad reagent; absorbance was read on a spectrophotometer at 562 nm. [^125I]WYE230949 binding assays were carried out in a final incubation volume of 500 µl containing Tris-HCl buffer (Tris […], pH 7.4; EDTA 5 mM), brain homogenates (1.47 to 2.27 mg/ml of protein) and [^125I]WYE230949 (0.04–102 nM). Non-specific binding was defined in the presence of 10 µM iodophenpropit. Samples were incubated at 30°C for 30 min, then filtered rapidly through Whatman GF/B filters (pre-treated with 0.3% polyethylenimine; Aldrich, UK) using a Brandel M24R cell harvester and the filters washed with 3×4 ml ice-cold Tris buffer. Radioactivity on the filters was determined by liquid scintillation counting a minimum of 48 h after filtration. All assays were performed in triplicate. Specific binding was determined by subtracting non-specific binding from total binding at each concentration; Kd and Bmax values derived using GraphPad Prism (version 4.03), and expressed as mean ±SEM of the triplicate assays.

For data set [6] the following is noted: cited from earlier work. This is another data set of the same source.
On the set-up of data set [7]: method as in PMID 19910432. The note with it: porcine brain, 20 min post injection; cited from earlier work.
Details of data set [8]: method as in PMID 16934699. The note with it: rats, 5 min post injection; cited from earlier work.
The conditions of data set [9]: cited from earlier work. This is another data set of the same source.
The target in data set [10] is T1, rat histamine H3 receptor. The note with it: rat striatum; cited from earlier work.

T1 sequence (Q9QYN8 whole entry): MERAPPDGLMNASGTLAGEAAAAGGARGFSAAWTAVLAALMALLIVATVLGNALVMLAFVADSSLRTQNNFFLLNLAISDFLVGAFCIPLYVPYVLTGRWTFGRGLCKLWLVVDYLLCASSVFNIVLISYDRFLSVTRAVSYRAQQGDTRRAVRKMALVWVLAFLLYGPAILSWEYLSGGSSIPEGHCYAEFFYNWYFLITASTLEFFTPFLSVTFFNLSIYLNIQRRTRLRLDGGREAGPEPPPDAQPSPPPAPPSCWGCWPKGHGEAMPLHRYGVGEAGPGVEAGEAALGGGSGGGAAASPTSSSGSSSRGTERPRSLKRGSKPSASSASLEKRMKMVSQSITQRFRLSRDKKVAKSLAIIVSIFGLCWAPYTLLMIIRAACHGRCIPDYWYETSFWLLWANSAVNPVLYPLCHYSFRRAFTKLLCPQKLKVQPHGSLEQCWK

With `[18F]c1ccc(COCCCc2cnc[nH]2)cc1` [[^18F]fluoroproxyfan], the “parent remaining in the brain” value is on record as 94% in data set [1] (30 min post injection) and 68% in data set [1] (120 min post injection). Moreover, the “parent remaining in plasma” value in data set [2] (30 minutes post injection) was 43%.

Usually Ki stands for a measure of affinity in units of concentration, obtained from inhibition or displacement. For `O=C(c1ccc(Cn2cnc3cccc(I)c32)cc1)N1CC[C@H](N2CCCC2)C1` [WYE-230949], the results for the Ki in data set [3] and in data set [4] were 5.7 nM and 0.3 nM, respectively.

By Kd is commonly meant the equilibrium constant for the complex coming apart. A low value points to higher affinity. Compound `O=C(c1ccc(Cn2cnc3cccc(I)c32)cc1)N1CC[C@H](N2CCCC2)C1` [[^125I]WYE-230949] returned a Kd in data set [5] of 6.9 nM.

For orientation: LogD means lipophilicity at a set pH, counting ionised and neutral species. `[11CH3]NC(=O)c1ccc(Oc2ccc3c(c2)CCN(C2CCC2)CC3)nc1` [[^11C]GSK189254]: in data set [6], the LogD was 1.7. For the same compound, in data set [7], the brain uptake is 9.0 %ID/L. For the same compound, the “parent remaining in plasma” value in data set [2] (30 minutes post injection) is 58%; in data set [2] (after 90 min), 55%.

Take `C(#Cc1cccc([11CH2]N2CCOCC2)c1)CCN1CCCCC1` [[^11C]JNJ-10181457, 4-[3-(4-piperidin-1-yl-but-1-ynyl)-[^11C]benzyl]-morpholine]: the “parent remaining in the brain” value in data set [1] (30 min post injection) was “greater than 80%”. Further, the brain uptake in data set [8] is reported as 1.38 %ID/g.

Regarding `[123I]c1ccc(COCCCc2cnc[nH]2)cc1` [[^123I]iodoproxyfan], the peak brain uptake in data set [9] is roughly 1.5 %ID/g. For the same compound, the Bmax in data set [10] is listed as 78 fmol/mg of protein.
